Measurements taken from US9333172B2, “Topical skin care composition” (GALDERMA S.A., priority 2002, dated 2016).

Conditions: in vivo

| Number of subjects with quantifiable plasma concentrations (human, 8 weeks) | Subjects with quantifiable plasma concentrations (human, 8 weeks) [%] | Percutaneous absorption of unchanged drug into the systemic circulation | Post-dose plasma concentrations | Structure (SMILES) |
| --- | --- | --- | --- | --- |
| 8 | 18 | minimal | undetectably low | Oc1ccc(O)cc1 [hydroquinone, 1,4-benzenediol] |
|  |  | minimal | undetectably low | CC1(C)O[C@@H]2C[C@H]3[C@@H]4C[C@H](F)C5=CC(=O)C=C[C@]5(C)[C@@]4(F)[C@@H](O)C[C@]3(C)[C@]2(C(=O)CO)O1 [fluocinolone acetonide, (6,11,16)-6,9-difluoro-11,21-dihydroxy-16,17-[(1-methylethylidene)bis(oxy)]-pregna-1,-4-diene-3,20-dione] |
|  |  | minimal |  | CC1=C(/C=C/C(C)=C/C=C/C(C)=C/C(=O)O)C(C)(C)CCC1 [tretinoin, (all-E)-3,7-dimethyl-9-(2,6,6-trimethyl-1-cyclohexen-1-yl)-2,4,6,8-nonatetraenoic acid] |
